A word on the IC50: it is the concentration that gives 50% inhibition.

Our source for the IC50 values is patent publication US20080161320A1, “FUSED BICYCLIC PYRIMIDINES AS PTK INHIBITORS CONTAINING A ZINC BINDING MOIETY” (priority 2006, published 2008).

One experiment concerns HDAC. In words: HDAC fluorimetric assay kit (AK-500, Biomol), HeLa nuclear extract. Format: biochemical. How it is done:
HDAC inhibitors were screened using an HDAC fluorimetric assay kit (AK-500, Biomol, Plymouth Meeting, Pa.). […] Each assay was setup as follows: Defrosted all kit components and kept on ice until use. […] Prepared dilutions of Trichostatin A (TSA, positive control) and tested compounds in assay buffer (5× of final concentration). Diluted Fluor de Lys™ Substrate in assay buffer to 100 uM (50 fold=2× final). Diluted Fluor de Lys™ developer concentrate 20-fold (e.g. 50 μl plus 950 μl Assay Buffer) in cold assay buffer. Second, diluted the 0.2 mM Trichostatin A 100-fold in the 1× Developer (e.g. 10 μl in 1 ml; final Trichostatin A concentration in the 1× Developer=2 μM; final concentration after addition to HDAC/Substrate reaction=1 μM). Added Assay buffer, diluted trichostatin A or test inhibitor to appropriate wells of the microtiter plate. Added diluted HeLa extract or other HDAC sample to all wells except for negative controls.

The next experiment concerns the target T1, human EGFR (Homo sapiens, UniProt P00533).
T1 construct: human EGFR (His672-Ala1210); GST (N); purchased Cell Signaling Technologies; host or cells: baculovirus expression system
In words: HTScan Receptor Kinase Assay, EGFR. Format: biochemical.

A further experiment deals with human VEGFR2 (Homo sapiens, UniProt P35968). In words: HTScan Receptor Kinase Assay, VEGFR2.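 Also: recombinant GST-His-tagged human VEGFR2 kinase domain phosphorylating biotinylated gastrin precursor peptide, 30 min at room temperature, phosphotyrosine detected by Europium-labelled antibody time-resolved fluorescence.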
Another experiment has as its target human HER2/ErbB2 (Homo sapiens, UniProt P04626). In words: HTScan Receptor Kinase Assay, HER2/ErbB2.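 Also: europium time-resolved fluorescence detection of anti-phosphotyrosine antibody binding to biotinylated FLT3 (Tyr589) peptide phosphorylated by the kinase, 30 min reaction at room temperature.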

SMILES strings stand for the structures.

T1 sequence (P00533 672-1210): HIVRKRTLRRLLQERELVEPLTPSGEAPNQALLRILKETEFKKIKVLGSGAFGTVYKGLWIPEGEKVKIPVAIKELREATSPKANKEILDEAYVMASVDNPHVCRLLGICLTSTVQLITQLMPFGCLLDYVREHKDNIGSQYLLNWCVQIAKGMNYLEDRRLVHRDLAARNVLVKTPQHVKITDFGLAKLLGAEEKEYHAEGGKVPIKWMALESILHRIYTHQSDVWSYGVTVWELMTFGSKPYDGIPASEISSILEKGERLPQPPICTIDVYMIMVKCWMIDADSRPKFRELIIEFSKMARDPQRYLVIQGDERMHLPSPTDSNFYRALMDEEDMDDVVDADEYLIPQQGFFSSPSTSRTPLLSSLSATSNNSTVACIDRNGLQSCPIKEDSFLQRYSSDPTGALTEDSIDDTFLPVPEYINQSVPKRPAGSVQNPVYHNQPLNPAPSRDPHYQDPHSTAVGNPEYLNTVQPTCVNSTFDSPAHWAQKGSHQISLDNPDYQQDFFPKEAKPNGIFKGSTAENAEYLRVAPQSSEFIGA
human VEGFR2, sequence (P35968 807-1356 limits assumed): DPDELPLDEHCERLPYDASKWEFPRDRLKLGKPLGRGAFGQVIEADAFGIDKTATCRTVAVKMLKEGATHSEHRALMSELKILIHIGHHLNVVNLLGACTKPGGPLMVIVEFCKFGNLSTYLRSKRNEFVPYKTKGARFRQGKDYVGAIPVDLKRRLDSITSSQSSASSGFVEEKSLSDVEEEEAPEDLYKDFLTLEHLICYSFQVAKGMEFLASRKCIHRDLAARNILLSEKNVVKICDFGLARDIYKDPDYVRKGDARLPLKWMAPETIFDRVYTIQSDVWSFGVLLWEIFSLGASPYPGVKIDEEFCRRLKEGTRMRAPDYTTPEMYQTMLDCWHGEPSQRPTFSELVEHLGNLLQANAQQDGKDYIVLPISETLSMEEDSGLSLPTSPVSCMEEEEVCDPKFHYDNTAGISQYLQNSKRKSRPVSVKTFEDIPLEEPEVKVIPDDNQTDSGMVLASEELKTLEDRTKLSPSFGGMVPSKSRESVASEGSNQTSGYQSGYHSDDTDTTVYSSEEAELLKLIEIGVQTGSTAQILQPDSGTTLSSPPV
human HER2/ErbB2, sequence (P04626 676-1255): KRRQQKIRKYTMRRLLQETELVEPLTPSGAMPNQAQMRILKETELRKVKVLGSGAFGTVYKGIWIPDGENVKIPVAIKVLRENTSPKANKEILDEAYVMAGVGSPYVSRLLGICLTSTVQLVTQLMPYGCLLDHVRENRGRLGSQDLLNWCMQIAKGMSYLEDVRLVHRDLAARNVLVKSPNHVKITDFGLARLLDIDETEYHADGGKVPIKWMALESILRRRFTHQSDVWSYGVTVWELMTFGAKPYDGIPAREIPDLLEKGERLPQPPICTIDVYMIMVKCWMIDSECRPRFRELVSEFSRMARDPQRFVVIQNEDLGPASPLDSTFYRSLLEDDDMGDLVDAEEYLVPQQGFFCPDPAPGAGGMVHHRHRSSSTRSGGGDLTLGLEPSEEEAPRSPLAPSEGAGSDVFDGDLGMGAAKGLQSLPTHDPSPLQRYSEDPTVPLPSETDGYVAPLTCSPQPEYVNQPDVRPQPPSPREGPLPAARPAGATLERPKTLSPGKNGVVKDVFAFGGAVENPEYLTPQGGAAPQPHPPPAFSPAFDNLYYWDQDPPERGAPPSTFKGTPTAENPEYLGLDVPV
Description for human HER2/ErbB2: (§1) The ability of compounds to inhibit receptor kinase (EGFR, HER2/ErbB2, and VEGFR2) activity was assayed using HTScan™ Receptor Kinase Assay Kits (Cell Signaling Technologies, Danvers, Mass.). […] VEGFR2 tyrosine kinase was produced using a baculovirus expression system from a construct containing a human VEGFR2 cDNA kinase domain (Asp805-Val1356) (GenBank accession No. AF035121) fragment amino-terminally fused to a GST-HIS6-Thrombin cleavage site. The proteins were purified by one-step affinity chromatography using glutathione-agarose. An anti-phosphotyrosine monoclonal antibody, P-Tyr-100, was used to detect phosphorylation of biotinylated substrate peptides (EGFR, Biotin-PTP1B (Tyr66); HER2/ErbB2, Biotinylated FLT3 (Tyr589); VEGFR2, Biotin-Gastrin Precursor (Tyr87).). […] Fluorescence was measured on a WALLAC Victor 2 plate reader and reported as relative fluorescence units (RFU). Data were plotted using GraphPad Prism (v4.0a) and IC50's calculated using a sigmoidal dose response curve fitting algorithm.
(§2) Each assay was setup as follows: Added 100 μl of 10 mM ATP to 1.25 ml 6 mM substrate peptide. Diluted the mixture with dH20 to 2.5 ml to make 2×ATP/substrate cocktail ([ATP]=400 mM, [substrate]=3 mM). Immediately transfer enzyme from −80° C. to ice. Allowed enzyme to thaw on ice. Microcentrifuged briefly at 4° C. to bring liquid to the bottom of the vial. Returned immediately to ice. […] Transfer 1.25 ml of DTT/Kinase buffer to enzyme tube to make 4× reaction cocktail ([enzyme]=4 ng/μL in 4× reaction cocktail). […] Incubated reaction plate at room temperature for 30 minutes. Added 50 μl/well Stop Buffer (50 mM EDTA, pH 8) to stop the reaction. Transferred 25 μl of each reaction and 75 μl dH2O/well to a 96-well streptavidin-coated plate and incubated at room temperature for 60 minutes. Washed three times with 200 μl/well PBS/T (PBS, 0.05% Tween-20). […] Added 100 μl/well primary antibody. Incubated at room temperature for 60 minutes. Washed three times with 200 μl/well PBS/T. Diluted Europium labeled anti-mouse IgG 1:500 in PBS/T with 1% BSA. Added 100 μl/well diluted antibody. Incubated at room temperature for 30 minutes. Washed five times with 200 μl/well PBS/T. Added 100 μl/well DELFIA® Enhancement Solution. Incubated at room temperature for 5 minutes.
Description for human VEGFR2: as §1, §2

As for `C[C@@H](Nc1ncnc2[nH]c(-c3ccc(OCCCCCC(=O)NO)cc3)cc12)c1ccccc1` [Compound 21, (R)—N-hydroxy-6-(4-(4-(1-phenylethylamino)-7H-pyrrolo[2,3-d]pyrimidin-6-yl)phenoxy)hexanamide], the IC50 is under 100 nM in the experiment on HDAC, under 100 nM on human EGFR, 1000 to 10000 nM against human VEGFR2 and 100 to 1000 nM against human HER2/ErbB2.

Turning to `C[C@@H](Nc1ncnc2[nH]c(-c3ccc(NCc4ccc(C(=O)NO)cc4)cc3)cc12)c1ccccc1` [Compound 43, (R)—N-Hydroxy-4-((4-(4-(1-phenylethylamino)-7H-pyrrolo[2,3-d]pyrimidin-6-yl)phenylamino)methyl)benzamide], the IC50 in the experiment on HDAC was 100 to 1000 nM; against human EGFR it was under 100 nM; against human VEGFR2 it was 1000 to 10000 nM; at human HER2/ErbB2, 100 to 1000 nM.

With `C[C@@H](Nc1ncnc2[nH]c(-c3ccc(CN4CCN(CCCCCCC(=O)NO)CC4)cc3)cc12)c1ccccc1` [Compound 16, (R)—N-Hydroxy-7-(4-(4-(4-(1-phenylethylamino)-7H-pyrrolo[2,3-d]pyrimidin-6-yl)benzyl)piperazin-1-yl)heptanamide], the IC50 was 100 to 1000 nM in the experiment with HDAC, under 100 nM on human EGFR, 100 to 1000 nM at human VEGFR2 and under 100 nM at human HER2/ErbB2.

Regarding `C[C@@H](Nc1ncnc2[nH]c(-c3ccc(OCCNCCCCCCC(=O)NO)cc3)cc12)c1ccccc1` [Compound 60, (R)—N-hydroxy-7-(2-(4-(4-(1-phenylethylamino)-7H-pyrrolo[2,3-d]pyrimidin-6-yl)phenoxy)ethylamino)heptanamide], the IC50 in the experiment on HDAC is 100 to 1000 nM; at human EGFR, under 100 nM; on human VEGFR2 it was under 100 nM; against human HER2/ErbB2, under 100 nM.

For `C[C@@H](Nc1ncnc2[nH]c(-c3ccc(C(=O)NO)cc3)cc12)c1ccccc1` [Compound 39, (R)—N-hydroxy-4-(4-(1-phenylethylamino)-7H-pyrrolo[2,3-d]pyrimidin-6-yl)benzamide], the IC50 with HDAC was 100 to 1000 nM; against human EGFR, under 100 nM; against human VEGFR2, 100 to 1000 nM; against human HER2/ErbB2, under 100 nM.

Regarding `C[C@@H](Nc1ncnc2[nH]c(-c3ccc(CNCCCCCCC(=O)NO)cc3)cc12)c1ccccc1` [Compound 33, (R)—N-hydroxy-7-(4-(4-(1-phenylethylamino)-7H-pyrrolo[2,3-d]pyrimidin-6-yl)benzylamino)heptanamide], the IC50 in the experiment with HDAC is under 100 nM; on human EGFR, under 100 nM; against human VEGFR2, 100 to 1000 nM; against human HER2/ErbB2, 100 to 1000 nM.

For the compound `C[C@@H](Nc1ncnc2[nH]c(-c3ccc(NCCCCCCC(=O)NO)cc3)cc12)c1ccccc1` [Compound 67, (R)—N-hydroxy-7-(4-(4-(1-phenylethylamino)-7H-pyrrolo[2,3-d]pyrimidin-6-yl)phenylamino)heptanamide], the IC50 is under 100 nM with HDAC, under 100 nM at human EGFR, 100 to 1000 nM against human VEGFR2 and under 100 nM on human HER2/ErbB2.

Turning to `C[C@@H](Nc1ncnc2[nH]c(-c3ccc(NCc4ccc(/C=C/C(=O)NO)cc4)cc3)cc12)c1ccccc1` [Compound 42, (R,E)-N-Hydroxy-3-(4-((4-(4-(1-phenylethylamino)-7H-pyrrolo[2,3-d]pyrimidin-6-yl)phenylamino)methyl)phenyl)acrylamide], the IC50 with HDAC was 100 to 1000 nM; against human EGFR, under 100 nM; on human VEGFR2, 1000 to 10000 nM; on human HER2/ErbB2 it was 1000 to 10000 nM.

Regarding `C[C@@H](Nc1ncnc2[nH]c(-c3ccc(OCCCC(=O)NO)cc3)cc12)c1ccccc1` [Compound 19, (R)—N-Hydroxy-4-(4-(4-(1-phenylethylamino)-7H-pyrrolo[2,3-d]pyrimidin-6-yl)phenoxy)propanamide], the concentration for half-maximal inhibition (IC50) is 100 to 1000 nM with HDAC, under 100 nM at human EGFR, 100 to 1000 nM against human VEGFR2 and 100 to 1000 nM against human HER2/ErbB2.
